These results are taken from PubChem BioAssay AID1388 (Sanford-Burnham Center for Chemical Genomics, 2008).

The source made the active and inactive calls.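 How the source made its calls: active means no detectable phosphorylated eIF2 alpha band on the immunoblot of stressed cell lysates; inactive means phospho eIF2 alpha band still visible on the blot.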

For this assay, the target named is Eukaryotic translation initiation factor 2 subunit 1 (Rattus norvegicus) (UniProt P68101). The experiment in a line: blockers of stress-induced eIF2α phosphorylation – cell-based, thapsigargin, Western blot, mechanism study for ER stress cell death project, late-stage follow-up (AID 1388). The note with it: CSM14.1 cells, phospho-eIF2a Western blot.
Sequence of Eukaryotic translation initiation factor 2 subunit 1 (Rattus norvegicus) (P68101 whole entry, looked up): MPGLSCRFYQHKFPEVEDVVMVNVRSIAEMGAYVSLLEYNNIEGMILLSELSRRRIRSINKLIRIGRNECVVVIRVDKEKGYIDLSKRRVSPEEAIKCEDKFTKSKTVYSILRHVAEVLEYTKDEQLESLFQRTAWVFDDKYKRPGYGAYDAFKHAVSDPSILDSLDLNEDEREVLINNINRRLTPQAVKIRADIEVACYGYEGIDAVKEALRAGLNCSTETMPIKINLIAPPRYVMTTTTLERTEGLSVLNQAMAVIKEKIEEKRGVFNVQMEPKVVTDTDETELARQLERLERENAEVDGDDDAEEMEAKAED

On to `COc1ccc(C2CC(=O)C3=C(C2)Nc2ccccc2NC3c2cccc(Br)c2)cc1OC` (stereo unspecified), for which the result was inactive. As for `CCOc1cccc(C2Nc3ccccc3NC3=C2C(=O)CC(c2ccc(OC)cc2)C3)c1` (stereo unspecified), the entry is “inactive”. As for `CCOc1cc(C2Nc3ccccc3NC3=C2C(=O)CC(c2ccc(OC)cc2)C3)cc(Cl)c1O` (stereo unspecified), the entry is “inactive”. The value for `CC1(C)CC(=O)C2=C(C1)Nc1ccccc1NC2c1ccc(-c2ccccc2)cc1` (stereo unspecified) was “inactive”; that for `CCCOc1ccc(C2Nc3ccccc3NC3=C2C(=O)CC(c2ccc(OC)c(OC)c2)C3)cc1` (stereo unspecified) was “inactive”; that for `COc1ccc(C2CC(=O)C3=C(C2)Nc2ccccc2NC3c2cccc(C(F)(F)F)c2)cc1OC` (stereo unspecified) was “inactive”.

Take `COc1ccc(C2CC(=O)C3=C(C2)Nc2ccccc2NC3c2cc(C)ccc2C)cc1` (stereo unspecified): the result was inactive.

On to `COc1ccc(C2CC(=O)C3=C(C2)Nc2ccccc2NC3c2cccc(Oc3ccccc3)c2)cc1OC` (stereo unspecified), for which the result was inactive.

Regarding `COc1ccc(C2CC(=O)C3=C(C2)Nc2ccccc2NC3c2ccccc2C(F)(F)F)cc1OC` (stereo unspecified), the result was inactive. The value for `CSc1ccc(C2Nc3ccccc3NC3=C2C(=O)CC(c2ccccc2)C3)cc1` (stereo unspecified) was “inactive”; that for `O=C1CC(c2ccccc2)CC2=C1C(c1c(F)cccc1Cl)Nc1ccccc1N2` (stereo unspecified) was “inactive”.
